Experimental data published in patent US20110110860A1, “MODULATION OF LDL RECEPTOR GENE EXPRESSION WITH DOUBLE-STRANDED RNAS TARGETING THE LDL RECEPTOR GENE PROMOTER” (The Board of Regents of the University of Texas System, priority 2009, published 2011).

Tests used:
[1] = tested on: LDLR; assay: Combination treatment with 25-hydroxycholesterol and agRNAs (western, HepG2); type: cell-based, human; conditions: 25-hydroxycholesterol 2 μM
Protocol: (§1) Analysis of LDLR protein expression. Cells were harvested 4 days after transfection for western blotting analysis. Cells were detached from plates using cell dissociation solution (Sigma) and lysed with lysis buffer (50 mM Tris-HCl, 120 mM NaCl, 0.5% NP-40, 1 mM EDTA, 1 mM DTT, and protease inhibitor (Calbiochem)). Protein concentrations were quantified with BCA assay kit (Thermo Scientific). SDS-PAGE was performed using 7.5% Tris-HCl gels (Bio-Rad). Gels were run at 100 V for 60 min. After gel electrophoresis, proteins were transferred to nitrocellulose membrane (Hybond-C-Extra; GE Healthcare) at 100 V for 2 h. After blocking the membrane with 5% non-fat dry milk/TBST at room temperature for 1 h, the membrane was incubated with primary antibody specific for LDLR or β-actin at the following dilution ratio: anti-LDLR antibody (ab52818; 1:10,000; abcam), anti-β-actin antibody (1:20,000; Sigma). HRP-conjugated anti-rabbit (1:10,000; Jackson ImmunoResearch) or anti-mouse (1:20,000; Sigma) secondary antibody was used for visualizing proteins using SuperSignal West Pico Chemiluminescent Substrate (Thermo Scientific). Protein bands were quantified using ImageJ software.
Combination treatment with 25-hydroxycholesterol and agRNAs. dsRNAs (50 nM) were transfected into HepG2 cells as described above (Day 0), and the media were exchanged one day later. […]

[2] = tested on: LDLR; assay: Western analysis of LDLR protein expression in HepG2 cells after transfection of duplex RNAs; type: cell-based, human; conditions: for effect on LDLR expression (in words): 50 nM, western analysis
Protocol: Cell culture and transfection. Unmodified, 2′-O-methyl, and 2′-fluoro RNAs with two 2′-deoxythymidine bases at the 3′ end were obtained from Integrated DNA Technologies or Alnylam Pharmaceuticals. HepG2 (American Type Culture Collection (ATCC)) and fibroblast cells (GM04281; Coriell) were cultured with Minimum Essential Medium Eagle (MEM; Sigma) supplemented with 10% FBS, 1% MEM non-essential amino acids (Sigma), and 1 mM sodium pyruvate (Sigma). HuH-7 (Japanese Collection of Research Bioresources) and SW480 cells (ATCC) were cultured with Dulbecco's Modified Eagle's Medium (Sigma) supplemented with 10% FBS and 1 mM sodium pyruvate. Cells were plated in 6-well plates at 120,000 (HepG2 and HuH-7), 60,000 (fibroblast), or 150,000 (SW480) cells/well 2 days before transfection. Duplex RNAs were transfected into cells using Lipofectamine RNAiMAX (Invitrogen). Cationic lipid (2.4 μL for 50 nM dsRNA) was added to OptiMEM (Invitrogen) containing oligonucleotides and the oligonucleotide-lipid mixture (250 μL) was incubated at room temperature for 20 min. OptiMEM (for HepG2 and fibroblast) or full media (for HuH-7 and SW480) was added to a final volume of 1.25 mL and the mixture was applied to cells. Media was exchanged 1 day later with fresh supplemented media (2 mL).
as §1
(§2) Analysis of Interferon Responsive Genes. mRNA levels of the interferon responsive genes including OAST, OAS2, MX1, IFITM1, and ISGF3γ were measured by qRT-PCR. agRNAs (50 nM) and Poly I:C (0-100 ng/mL; Sigma) were transfected into HepG2 cells using the cationic lipid as described above. Three days after transfection, total RNAs from dsRNA-treated, poly I:C-treated, or untreated samples were isolated using TRIzol. The RNAs were treated with DNase I at 25° C. for 10 min, followed by reverse transcription reaction at 37° C. for 2 h. qPCR was performed using iTaq SYBR Supermix and primers specific for the interferon responsive genes (Interferon Response Detection Kit; System Biosciences). LDLR protein levels on Day 4 were also measured by western blot analysis.

[3] = target: T1, AGO2 (Homo sapiens, UniProt Q9UKV8); assay: RNA immunoprecipitation (RIP) of AGO2 on the LDLR antisense transcript; type: cell-based; conditions: 50 nM, HepG2 cells
T1 construct: endogenous in cells; host or cells: HepG2
Protocol: Chromatin Immunoprecipitation (ChIP)/RNA Immunoprecipitation (RIP). HepG2 cells were seeded at 1,080,000 cells in 15 cm dishes 2 days before transfection for ChIP or RIP experiments. Two dishes were treated with activating agRNAs (LDLR-24(U/U) and LDLR-28(U/U)) or mismatch controls (LDLRmm1, LDLRmm3, and LDLRmm4) (50 nM). Four days after transfection, cells were crosslinked with 1% formaldehyde. Cells were recovered by scraping and nuclei were isolated using hypotonic lysis buffer (5 mL; 10 mM Tris-HCl (pH 7.5), 10 mM NaCl, 3 mM MgCl2, 0.5% NP-40). Nuclei were lysed in lysis buffer (1 mL; 1% SDS, 10 mM EDTA, 50 mM Tris-HCl (pH 8.1), 1× Roche protease inhibitors cocktail, 40 U/mL RNasin Plus RNase Inhibitor (Promega)) and sonicated (2 pulses, 20% power, 20 sec).
The cell lysate (100 μL) was incubated overnight with antibodies in immunoprecipitation buffer (1 mL; 0.01% SDS, 1.1% Triton-X-100, 1.2 mM EDTA, 16.7 mM Tris-HCl (pH 8.1), 167 mM NaCl, and 1× Roche protease inhibitors cocktail, 40 U/mL RNasin Plus RNase Inhibitor). Monoclonal anti-RNAP II (2 μg; Millipore) and polyclonal anti-H3K27me3 (2 μg; Millipore) antibodies were used for ChIP experiments. Polyclonal anti-AGO1 (2 μg; Millipore) and polyclonal anti-AGO2 (2 μg; Millipore) antibodies were used for RIP experiments. […] PCR products were analyzed on 2.5% agarose gel and stained with ethidium bromide.

[4] = tested on: interferon responsive genes (OAST, OAS2, MX1, IFITM1, ISGF3γ); assay: Analysis of interferon responsive genes by qRT-PCR in HepG2 cells; type: cell-based, human; conditions: agRNAs 50 nM, poly I:C 0-100 ng/mL, HepG2, three days after transfection
Protocol: as §2

T1 sequence (Q9UKV8 whole entry): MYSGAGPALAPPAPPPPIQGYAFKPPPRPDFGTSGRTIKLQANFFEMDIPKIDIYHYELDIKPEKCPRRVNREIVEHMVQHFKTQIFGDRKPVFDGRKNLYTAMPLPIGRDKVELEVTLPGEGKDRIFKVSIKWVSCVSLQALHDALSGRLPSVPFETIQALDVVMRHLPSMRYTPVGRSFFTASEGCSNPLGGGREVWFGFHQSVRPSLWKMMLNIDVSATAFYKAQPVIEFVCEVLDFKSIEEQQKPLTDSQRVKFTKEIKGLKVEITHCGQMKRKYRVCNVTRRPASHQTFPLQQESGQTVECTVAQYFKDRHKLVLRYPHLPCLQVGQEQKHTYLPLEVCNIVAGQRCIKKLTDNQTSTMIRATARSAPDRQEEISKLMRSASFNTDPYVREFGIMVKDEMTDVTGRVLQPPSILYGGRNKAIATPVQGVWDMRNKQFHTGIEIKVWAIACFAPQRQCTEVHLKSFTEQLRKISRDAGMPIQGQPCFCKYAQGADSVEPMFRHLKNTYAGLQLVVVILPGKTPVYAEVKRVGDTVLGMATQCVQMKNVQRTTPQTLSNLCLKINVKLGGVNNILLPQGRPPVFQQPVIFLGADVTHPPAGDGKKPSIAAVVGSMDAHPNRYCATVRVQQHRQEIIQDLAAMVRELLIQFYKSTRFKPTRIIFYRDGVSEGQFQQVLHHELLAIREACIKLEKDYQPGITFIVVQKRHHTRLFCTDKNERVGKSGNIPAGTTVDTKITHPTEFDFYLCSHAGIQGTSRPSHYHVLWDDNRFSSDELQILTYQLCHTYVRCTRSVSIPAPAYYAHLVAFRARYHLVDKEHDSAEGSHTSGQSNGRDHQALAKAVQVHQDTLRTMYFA

## C[C@H](CCCC(C)(C)O)[C@H]1CC[C@H]2[C@@H]3CC=C4C[C@@H](O)CC[C@]4(C)[C@H]3CC[C@]12C [25-hydroxycholesterol]
[1]
  baseline LDLR expression with 25-hydroxycholesterol alone: lowers baseline LDLR expression

## LDLR-18: agRNA duplex; sense AAAUGACGUGGGCCCCGAGdTdT, antisense CUCGGGGCCCACGUCAUUUdTdT (sense AAAUGACGUGGGCCCCGAGDTDT; antisense CUCGGGGCCCACGUCAUUUDTDT; chemistry not fully specified)
[2]
  effect on LDLR expression (in words): appeared to reduce gene expression

## LDLR-35: agRNA duplex; sense UCACAUUGAAAUGCUGUAAdTdT, antisense UUACAGCAUUUCAAUGUGAdTdT (sense UCACAUUGAAAUGCUGUAADTDT; antisense UUACAGCAUUUCAAUGUGADTDT; chemistry not fully specified)
[2]
  effect on LDLR expression (in words): appeared to reduce gene expression

## LDLR-65: agRNA duplex; sense CACUGCAAACUCCUCCCCCdTdT, antisense GGGGGAGGAGUUUGCAGUGdTdT (sense CACUGCAAACUCCUCCCCCDTDT; antisense GGGGGAGGAGUUUGCAGUGDTDT; chemistry not fully specified)
[2]
  effect on LDLR expression (in words): appeared to reduce gene expression

## LDLRmm3: mismatch duplex disrupting predicted seed sequence; sense UCCAGAAAAUGACGUGGGCdTdT, antisense GCCCACGUCAUUUUCUGGAdTdT (sense UCCAGAAAAUGACGUGGGCDTDT; antisense GCCCACGUCAUUUUCUGGADTDT; chemistry not fully specified)
[3]
  recruitment of AGO2 to the LDLR antisense transcript: not

## LDLRmm4: mismatch duplex, three mismatches outside seed sequence; sense UGCUGUAAAUGAGGAGCGCdTdT, antisense GCGCUCCUCAUUUACAGCAdTdT (sense UGCUGUAAAUGAGGAGCGCDTDT; antisense GCGCUCCUCAUUUACAGCADTDT; chemistry not fully specified)
[2]
  effect on LDLR expression (in words): activation
[3]
  recruitment of AGO2 to the LDLR antisense transcript: recruitment of AGO2

## polyinosinic-polycytidylic acid [poly I:C]
[4]
  interferon-responsive gene expression (OAST, OAS2, MX1, IFITM1, ISGF3γ): substantially increases
[2]; any concentrations tested (0-100 ng/mL), Day 4 western
  effect of poly I:C on LDLR expression: did not upregulate LDLR expression
